pIC50: −log10 of the molar value.
What was measured:
[1] = test system: MM.1S cells; experiment: MTS CellTiter 96 cell proliferation assay, MM.1S; format: cell-based, human
Description: Cell viability was assessed by MTS assay as follows.
The MTS CellTiter 96 assay is a colorimetric method to assess the number of viable cells based on the conversion of a tetrazolium compound (MTS) to a formazan product by the mitochondrial dehydrogenase enzyme of the cells. This assay is used to determine the number of viable cells remaining following a drug treatment in comparison to the number of viable cells that are only treated with the drug vehicle (control cells). The amount of formazan product in the control cells is normalized to 100% and the amount of formazan in the drug treated cells is expressed as a percentage of control. This is used to generate dose response curve and estimate the drug concentration that produced a 50% decrease in the number of viable cells.

[2] = test system: U937 cell lines; experiment: Immunoblot of PARP cleavage and cleaved caspase 3; format: cell-based, human; conditions: U937 cell lysates, FIG. 17
Description: FIG. 17. Immunoblot of cell lysates from U937 cell lines treated with Compounds 381, 383, 409 (as test compounds) and Compound 501 (as a negative control) as compared to 8-amino adenosine (8NH2-Ado) and 8-chloro adenosine (8Cl-Ado) (as positive controls). The impact of the compounds on proteins associated with cell death was assessed via performing an immunoblot. (See FIG. 17). PARP cleavage indicated activation of the caspase cascade and cell death by induction of apoptosis. Similarly detection of cleaved caspase 3 indicated activation of caspase activity and cell death by apoptosis. GAPDH was included as a loading control to indicate approximately equal loading of protein.

FC(F)(F)c1cn(CC2CCNCC2)c2ncnc(Cl)c12 [NUCC-0000381]
decreasing cell proliferation ([1]; 0.1-10 μM, MTS assay, FIG. 1, compared with 8-amino adenosine): as effective in decreasing cell proliferation as 8-amine-adenosine | pIC50 ([1]; Homo sapiens, MM1.S, MTS cell proliferation assay, read-out: Estimated IC50): 6.22 | induction of apoptosis (PARP cleavage, cleaved caspase 3) [2]: Induction of apoptosis was observed
